Where a name gives a salt, the structure may show the parent alone.
Assay: Inhibition of guinea pig acetylcholinesterase

SMILES	IC50
O=c1[nH]c2ccccc2n1CCNCc1ccc(CN2CCCCC2)o1 [1-{2-[(5-Piperidin-1-ylmethyl-furan-2-ylmethyl)-amino]-ethyl}-1,3-dihydro-benzoimidazol-2-one]	1200 nM
COC1CCCN(Cc2ccc(CNCCN3CCN=C3C(C#N)C#N)o2)C1 (stereo unspecified)	3300 nM
CC1CCCCN1Cc1ccc(CNCCN2CCN=C2C(C#N)C#N)o1 (stereo unspecified) [2-[1-(2-{[5-(2-Methyl-piperidin-1-ylmethyl)-furan-2-ylmethyl]-amino}-ethyl)-imidazolidin-2-ylidene]-malononitrile]	540 nM
COc1cc(N)c(Cl)cc1C(=O)NCCNCc1ccc(CN(C)C)o1 [4-Amino-5-chloro-N-{2-[(5-dimethylaminomethyl-furan-2-ylmethyl)-amino]-ethyl}-2-methoxy-benzamide]	3100 nM
CN=C(NCCNCc1ccc(CN(C)C)o1)C(C#N)C#N [2-({2-[(5-Dimethylaminomethyl-furan-2-ylmethyl)-amino]-ethylamino}-methylamino-methylene)-malononitrile]	630 nM
N#CC(C#N)C1=NCCN1CCNCc1ccc(CN2CCCCC2)o1 [2-(1-{2-[(5-Piperidin-1-ylmethyl-furan-2-ylmethyl)-amino]-ethyl}-imidazolidin-2-ylidene)-malononitrile]	30 nM
N#CC(C#N)C1=NCCN1CCNCc1ccc(CN2CCCC2)o1 [2-(1-{2-[(5-Pyrrolidin-1-ylmethyl-furan-2-ylmethyl)-amino]-ethyl}-imidazolidin-2-ylidene)-malononitrile]	80 nM
N#CC(C#N)c1nc2ccccc2n1CCNCc1ccc(CN2CCCCC2)o1 [2-(1-{2-[(5-Piperidin-1-ylmethyl-furan-2-ylmethyl)-amino]-ethyl}-1,3-dihydro-benzoimidazol-2-ylidene)-malononitrile]	73 nM
CCN(CC)CCNC(=O)c1cc(Cl)c(N)cc1OC [4-amino-5-chloro-N-[2-(diethylamino)ethyl]-2-methoxy-benzamide;hydrochloride]	> 20000 nM
N#CC(C#N)C1=NCCN1CCNCc1ccc(CN2CCSCC2)o1 [2-(1-{2-[(5-Thiomorpholin-4-ylmethyl-furan-2-ylmethyl)-amino]-ethyl}-imidazolidin-2-ylidene)-malononitrile]	1500 nM
CN=C(NCCNCc1ccc(CN2CCCC2)o1)C(C#N)C#N [2-(Methylamino-{2-[(5-pyrrolidin-1-ylmethyl-furan-2-ylmethyl)-amino]-ethylamino}-methylene)-malononitrile]	280 nM
CCN(CC)Cc1ccc(CNCCN2CCN=C2C(C#N)C#N)o1	600 nM
CCN(C)Cc1ccc(CNCCN2CCN=C2C(C#N)C#N)o1 [2-{1-[2-({5-[(Ethyl-methyl-amino)-methyl]-furan-2-ylmethyl}-amino)-ethyl]-imidazolidin-2-ylidene}-malononitrile]	430 nM
CN=C(NCCNCc1ccc(COC)o1)C(C#N)C#N [2-({2-[(5-Methoxymethyl-furan-2-ylmethyl)-amino]-ethylamino}-methylamino-methylene)-malononitrile]	> 20000 nM
N#CC(C#N)C1=NCCN1CCNCc1ccc(CN2CCOCC2)o1 [2-(1-{2-[(5-Morpholin-4-ylmethyl-furan-2-ylmethyl)-amino]-ethyl}-imidazolidin-2-ylidene)-malononitrile]	11000 nM
CN=C(NCCNCc1ccc(CN(C(C)C)C(C)C)o1)C(C#N)C#N [2-{[2-({5-[(Diisopropylamino)-methyl]-furan-2-ylmethyl}-amino)-ethylamino]-methylamino-methylene}-malononitrile]	2100 nM
N#CC(C#N)C1=NCCN1CCNCc1ccc(CN2CC=CCC2)o1	95 nM
CN(C)Cc1ccc(CNCCN2CCN=C2C[N+](=O)[O-])o1 [(5-Dimethylaminomethyl-furan-2-ylmethyl)-[2-(2-nitromethylene-imidazolidin-1-yl)-ethyl]-amine]	> 2000 nM
CC1CCN(Cc2ccc(CNCCN3CCN=C3C(C#N)C#N)o2)CC1 [2-[1-(2-{[5-(4-Methyl-piperidin-1-ylmethyl)-furan-2-ylmethyl]-amino}-ethyl)-imidazolidin-2-ylidene]-malononitrile]	290 nM
CN=C(NCCNCc1ccc(CN2CCCCC2)o1)C(C#N)C#N	830 nM
CNc1c(NCCNCc2ccc(CN3CCCCC3)o2)c(=O)c1=O [3-Methylamino-4-{2-[(5-piperidin-1-ylmethyl-furan-2-ylmethyl)-amino]-ethylamino}-cyclobut-3-ene-1,2-dione]	9300 nM
N#CC(C#N)C1=NCCN1CCNCc1ccc(CN2CCCCCC2)o1	120 nM

Assay: Inhibition of guinea pig acetylcholinesterase

SMILES	IC50
N#CC(C#N)C1=NCCN1CCNCc1ccc(CN2CCCC(O)C2)o1 (stereo unspecified) [2-[1-(2-{[5-(3-Hydroxy-piperidin-1-ylmethyl)-furan-2-ylmethyl]-amino}-ethyl)-imidazolidin-2-ylidene]-malononitrile]	370 nM
CN(C)Cc1ccc(CNCCN2CCN=C2C(C#N)C#N)o1 [2-(1-{2-[(5-Dimethylaminomethyl-furan-2-ylmethyl)-amino]-ethyl}-imidazolidin-2-ylidene)-malononitrile]	390 nM
CC1CCCN(Cc2ccc(CNCCN3CCN=C3C(C#N)C#N)o2)C1 (stereo unspecified) [2-[1-(2-{[5-(3-Methyl-piperidin-1-ylmethyl)-furan-2-ylmethyl]-amino}-ethyl)-imidazolidin-2-ylidene]-malononitrile]	370 nM
N#CC(C#N)C1=NCCN1CCNCc1ccc(CN2CCC(O)CC2)o1 [2-[1-(2-{[5-(4-Hydroxy-piperidin-1-ylmethyl)-furan-2-ylmethyl]-amino}-ethyl)-imidazolidin-2-ylidene]-malononitrile]	390 nM
